{"source": "paper PMC3532132", "about": "“High-resolution structures of AidH complexes provide insights into a novel catalytic mechanism for N-acyl homoserine lactonase” (Acta Crystallographica Section D: Biological Crystallography, 2012)", "target": "T1, AidH (Ochrobactrum sp. T63, UniProt D2J2T6)", "T1 construct": "full length (251 residues), pET22b(+), C-terminal His tag, E. coli BL21(DE3); monomer in solution; alpha/beta-hydrolase, metal-independent", "T1 sequence (D2J2T6 1-271)": "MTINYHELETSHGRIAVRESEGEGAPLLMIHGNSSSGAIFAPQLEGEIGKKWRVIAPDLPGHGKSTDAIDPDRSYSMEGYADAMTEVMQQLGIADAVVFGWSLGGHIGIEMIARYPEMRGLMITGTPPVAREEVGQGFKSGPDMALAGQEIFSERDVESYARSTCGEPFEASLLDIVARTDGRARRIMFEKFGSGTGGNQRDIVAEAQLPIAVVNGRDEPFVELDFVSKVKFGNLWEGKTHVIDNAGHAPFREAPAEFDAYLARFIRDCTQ", "experiment": "X-ray crystal structure, […] A, soaked crystal", "format": "binding", "settings": "product of C4-HSL hydrolysis; active site, hydrogen bonds to Ser102, His248, Tyr160", "data": [{"compound": "CCCC(=O)N[C@@H](CCO)C(=O)O", "note": "[C4-HS, N-butanoyl homoserine]", "values": [{"measurement": "X-ray crystal structure, 1.09 A, soaked crystal", "value": "crystal structure of wild-type AidH complexed with the product C4-HS (AidH–C4-HS) was determined"}]}]}
